The text below walks through data of US11866450B2, “Modulators of Cystic Fibrosis Transmembrane Conductance regulator, pharmaceutical compositions, methods of treatment, and process for making the modulators” (priority 2018, dated 2024).

The conditions of series [1]: snar bond, DMSO.
Series [2] deals with CFTR-mediated chloride transport (Homo sapiens, UniProt P13569). Type of series: cell-based. The conditions noted are these: enteroid cells incubated with test compound 18-24 hours, acute 10 μM forskolin and 300 nM Compound III; for Max. Activity: % of chloride transport with 3 μM Compound A, 3 μM Compound II and 300 nM acute Compound III triple combination control. The method in brief:
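Membrane-potential fluorescence AUC over 15 min quantified CFTR chloride transport after acute forskolin (10 μM), IBMX (100 μM) and Compound III (300 nM) in chloride-free buffer. Human enteroid cells were pretreated with compound for 18–24 h; % Activity is relative to 3 μM Compound A + 3 μM Compound II + 300 nM Compound III.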

[3] abbreviates: from Cc1c(S(=O)(=O)NC(=O)c2ccc(-n3ccc(OCC(C)(C)C(F)(F)F)n3)nc2Cl)cnn1CCCC1CNC(C)(C)C1, 14-membered ring, K2CO3/CsF/3A MS, 25.9 mM, 150.0 °C.

Molecules are shown by their SMILES. “And” between values parts separate entries of the source, which are not always exact repeats. Equal values may be shown once. Read-outs that look alike come from different tables or passages of the source. Some results are limits rather than exact numbers.

Sequence of CFTR-mediated chloride transport (P13569 whole entry, looked up): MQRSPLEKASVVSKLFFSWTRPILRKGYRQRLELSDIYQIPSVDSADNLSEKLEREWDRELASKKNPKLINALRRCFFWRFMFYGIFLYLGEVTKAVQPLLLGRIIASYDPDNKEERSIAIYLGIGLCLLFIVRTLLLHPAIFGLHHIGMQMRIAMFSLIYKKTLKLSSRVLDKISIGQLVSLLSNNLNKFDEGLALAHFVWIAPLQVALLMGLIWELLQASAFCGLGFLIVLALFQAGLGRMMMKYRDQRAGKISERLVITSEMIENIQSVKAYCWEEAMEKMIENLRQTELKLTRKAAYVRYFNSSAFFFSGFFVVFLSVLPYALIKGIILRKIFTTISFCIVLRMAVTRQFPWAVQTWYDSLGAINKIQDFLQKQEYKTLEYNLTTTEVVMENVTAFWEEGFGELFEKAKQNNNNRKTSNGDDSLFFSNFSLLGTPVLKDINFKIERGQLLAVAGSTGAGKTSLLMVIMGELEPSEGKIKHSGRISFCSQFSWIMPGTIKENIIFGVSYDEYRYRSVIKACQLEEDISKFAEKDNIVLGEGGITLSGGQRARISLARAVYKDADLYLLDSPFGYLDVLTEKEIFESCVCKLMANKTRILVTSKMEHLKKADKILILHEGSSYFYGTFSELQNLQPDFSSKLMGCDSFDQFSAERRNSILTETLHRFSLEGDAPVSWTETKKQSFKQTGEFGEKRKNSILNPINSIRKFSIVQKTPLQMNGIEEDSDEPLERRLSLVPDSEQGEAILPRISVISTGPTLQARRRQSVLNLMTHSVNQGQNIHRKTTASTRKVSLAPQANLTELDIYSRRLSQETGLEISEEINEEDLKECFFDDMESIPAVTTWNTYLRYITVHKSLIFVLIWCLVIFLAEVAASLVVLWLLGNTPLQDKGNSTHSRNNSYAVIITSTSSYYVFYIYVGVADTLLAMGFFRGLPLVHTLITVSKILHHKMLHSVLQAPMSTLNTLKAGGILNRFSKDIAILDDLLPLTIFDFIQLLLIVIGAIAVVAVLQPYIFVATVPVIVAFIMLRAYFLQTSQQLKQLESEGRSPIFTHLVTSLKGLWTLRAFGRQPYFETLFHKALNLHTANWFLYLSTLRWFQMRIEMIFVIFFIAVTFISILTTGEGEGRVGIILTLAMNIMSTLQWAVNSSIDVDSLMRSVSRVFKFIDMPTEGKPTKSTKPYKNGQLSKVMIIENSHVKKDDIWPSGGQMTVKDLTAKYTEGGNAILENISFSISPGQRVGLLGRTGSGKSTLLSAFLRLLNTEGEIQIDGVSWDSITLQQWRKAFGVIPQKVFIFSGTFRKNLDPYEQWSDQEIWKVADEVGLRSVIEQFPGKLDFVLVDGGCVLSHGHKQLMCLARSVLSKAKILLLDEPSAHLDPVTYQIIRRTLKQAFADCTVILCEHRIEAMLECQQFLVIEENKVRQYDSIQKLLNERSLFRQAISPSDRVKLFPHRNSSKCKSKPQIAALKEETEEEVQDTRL

`CC1(C)CC2CCCNc3cccc(n3)S(=O)(=O)NC(=O)c3ccc(Cl)nc3N1C2` (centres unmarked) displayed a ring closure, yield after HPLC in series [1] (from CC1(C)CC(CCCNc2cccc(S(=O)(=O)NC(=O)c3ccc(Cl)nc3Cl)n2)CN1, 15-membered ring, K2CO3/CsF/3A MS, 82.2 mM, 140.0 °C) of 38%.

The compound `CC1(C)CC2CCCn3ccc(n3)S(=O)(=O)NC(=O)c3ccc(Cl)nc3N1C2` (centres unmarked) came in with a ring closure, yield after HPLC in series [1] (from CC(C)(C)OC(=O)N1CC(CCCn2nccc2S(=O)(=O)NC(=O)c2ccc(Cl)nc2Cl)CC1(C)C, 14-membered ring, K2CO3/CsF/3A MS, 89.2 mM, 140.0 °C, 2 steps) of 12%.

As for `CC1(C)CC2CCCn3nccc3S(=O)(=O)NC(=O)c3ccc(Cl)nc3N1C2` (centres unmarked), the ring closure, yield after HPLC in series [1] (from tert-butyl 4-[3-[3-1(2,6-dichloropyridine-3-carbonyl)sulfamoyl]pyrazol-1-yl]propyl]-2,2-dimethyl-pyrrolidine-1-carboxylate, TFA (Boc off), CsF/K2CO3/3A MS, 89.2 mM, 140.0 °C, 2 steps) worked out at 4%.

Compound `CC1(C)CC2CCNc3cccc(n3)S(=O)(=O)NC(=O)c3ccc(-n4ccc(OCCCC5(C(F)(F)F)CC5)n4)nc3N1C2` (centres unmarked) returned a ring closure, yield after HPLC in series [1] (from CC1(C)CC(CCNc2cccc(S(=O)(=O)NC(=O)c3ccc(-n4ccc(OCCCC5(C(F)(F)F)CC5)n4)nc3Cl)n2)CN1, 14-membered ring, K2CO3/CsF/3A MS, 128.0 mM, 150.0 °C) of 43%.

Turning to `CC1(C)CCC2CCCNc3cccc(n3)S(=O)(=O)NC(=O)c3ccc(Cl)nc3N21` (centres unmarked), the ring closure, yield after HPLC in series [1] (from CC1(C)CCC(CCCNc2cccc(S(=O)(=O)NC(=O)c3ccc(Cl)nc3Cl)n2)N1, 14-membered ring, K2CO3/CsF/4A MS, 63.7 mM, 150.0 °C) came out at 24%.

`CC1(C)CCC2CCCOc3cccc(c3)S(=O)(=O)NC(=O)c3ccc(-n4ccc(OCCC5(C(F)(F)F)CC5)n4)nc3N21` (centres unmarked) displayed a ring closure, yield after HPLC in series [1] (from CC(C)(C)OC(=O)N1C(CCCOc2cccc(S(=O)(=O)NC(=O)c3ccc(-n4ccc(OCCC5(C(F)(F)F)CC5)n4)nc3Cl)c2)CCC1(C)C, 14-membered ring, K2CO3, then CsF, 64.2 mM, 170.0 °C, 2 steps) of 4%.

In turn, `Cc1c2cnn1CCCCC1CN(c3nc(-n4ccc(OCCC5(C(F)(F)F)CC5)n4)ccc3C(=O)NS2(=O)=O)C(C)(C)C1` (centres unmarked) had a ring closure, yield after HPLC in series [1] (from Cc1c(S(=O)(=O)NC(=O)c2ccc(-n3ccc(OCCC4(C(F)(F)F)CC4)n3)nc2Cl)cnn1CCCCC1CNC(C)(C)C1, 15-membered ring, K2CO3/CsF, 130.1 mM, 150.0 °C) of 13%.

On to `Cc1c2cnn1CCC[C@@H]1CN(c3nc(-n4ccc(OCCC5(C(F)(F)F)CC5)n4)ccc3C(=O)NS2(=O)=O)C(C)(C)C1`, for which, in series [1] (from Cc1c(S(=O)(=O)NC(=O)c2ccc(-n3ccc(OCCC4(C(F)(F)F)CC4)n3)nc2Cl)cnn1CCC[C@@H]1CNC(C)(C)C1, 14-membered ring, K2CO3/CsF, 37.8 mM, 160.0 °C), the ring closure, yield after HPLC was 6% and 16%.

As for `Cc1ccc2nc1NCCCC1CN(c3nc(-n4ccc(OCCC5(C(F)(F)F)CC5)n4)ccc3C(=O)NS2(=O)=O)C(C)(C)C1` (centres unmarked), in series [1] (from Cc1ccc(S(=O)(=O)NC(=O)c2ccc(-n3ccc(OCCC4(C(F)(F)F)CC4)n3)nc2Cl)nc1NCCCC1CNC(C)(C)C1, 15-membered ring, K2CO3/CsF/4A MS, 61.3 mM, 140.0 °C, 16.0 h), the ring closure, yield after HPLC turned out to be 42%.

In series [1] (from Cc1cn(CCCC2CNC(C)(C)C2)nc1S(=O)(=O)NC(=O)c1ccc(-n2ccc(OCCC(C3CC3)C3CC3)n2)nc1Cl, 14-membered ring, K2CO3/CsF/3A MS, 58.8 mM, 150.0 °C), `Cc1cn2nc1S(=O)(=O)NC(=O)c1ccc(-n3ccc(OCCC(C4CC4)C4CC4)n3)nc1N1CC(CCC2)CC1(C)C` (centres unmarked) showed a ring closure, yield after HPLC of 38%.

Regarding `[2H]C([2H])(Oc1ccn(-c2ccc3c(n2)N2C[C@@H](CCCNc4nc(ccc4OCc4ccccc4)S(=O)(=O)NC3=O)CC2(C)C)n1)C([2H])([2H])C1C2(CC2)C12CC2`, in series [1] (from [2H]C([2H])(Oc1ccn(-c2ccc(C(=O)NS(=O)(=O)c3ccc(OCc4ccccc4)c(NCCC[C@@H]4CN(C(=O)OC(C)(C)C)C(C)(C)C4)n3)c(Cl)n2)n1)C([2H])([2H])C1C2(CC2)C12CC2, 15-membered ring, K2CO3/4A MS, 100.9 mM, 140.0 °C, 2 steps), the ring closure, yield after HPLC was determined as 44%.

In series [1] (setting [3]), `Cc1c2cnn1CCCC1CN(c3nc(-n4ccc(OCC(C)(C)C(F)(F)F)n4)ccc3C(=O)NS2(=O)=O)C(C)(C)C1` (single isomer, unassigned; atropisomer 1) returned a ring closure, yield after HPLC of 10%.

For `Cc1c2cnn1CCCC1CN(c3nc(-n4ccc(OCC(C)(C)C(F)(F)F)n4)ccc3C(=O)NS2(=O)=O)C(C)(C)C1` (single isomer, unassigned; atropisomer 2), the ring closure, yield after HPLC in series [1] (setting [3]) stood at 4%.

In the case of `CC1(C)CC2CCNc3cccc(n3)S(=O)(=O)NC(=O)c3ccc(-n4ccc(OCCC(C5CC5)C5CC5)n4)nc3N1C2` (single isomer, unassigned; enantiomer 1), the ring closure, yield after HPLC in series [1] (from CC1(C)CC(CCNc2cccc(S(=O)(=O)NC(=O)c3ccc(-n4ccc(OCCC(C5CC5)C5CC5)n4)nc3Cl)n2)CN1, 14-membered ring, K2CO3/CsF/3A MS, 24.9 mM, 150.0 °C) worked out at 41%.

Compound `CC1(C)CC2CCNc3cccc(n3)S(=O)(=O)NC(=O)c3ccc(-n4ccc(OCCC(C5CC5)C5CC5)n4)nc3N1C2` (single isomer, unassigned; enantiomer 2) returned a ring closure, yield after HPLC in series [1] (from CC1(C)CC(CCNc2cccc(S(=O)(=O)NC(=O)c3ccc(-n4ccc(OCCC(C5CC5)C5CC5)n4)nc3Cl)n2)CN1, 14-membered ring, K2CO3/CsF/3A MS, 22.7 mM, 150.0 °C) of 29%.

With `CC1(C)C[C@@H]2CCCNc3cc(O)cc(n3)S(=O)(=O)NC(=O)c3ccc(-n4ccc(OCCC5C6(CC6)C56CC6)n4)nc3N1C2` [Compound 264, (14S)-8-[3-(2-{Dispiro[2.0.2.1]heptan-7-yl}ethoxy)-1H-pyrazol-1-yl]-21-hydroxy-12,12-dimethyl-2λ^6-thia-3,9,11,18,23-pentaazatetracyclo[17.3.1.111,14.05,10]tetracosa-1(23),5,7,9,19,21-hexaene-2,2,4-trione], in series [2], the EC50 was less than 1000 nM and the “Max. Activity” value is reported as “+++ (+++ is >60%)”.

In the case of `CC1(C)C[C@@H]2CCCNc3cc(O)cc(n3)S(=O)(=O)NC(=O)c3ccc(-n4ccc(OCCCC5(C(F)(F)F)CC5)n4)nc3N1C2` [Compound 265, (14S)-21-Hydroxy-12,12-dimethyl-8-(3-{3-[1-(trifluoromethyl)cyclopropyl]propoxy}-1H-pyrazol-1-yl)-2λ^6-thia-3,9,11,18,23-pentaazatetracyclo[17.3.1.111,14.05,10]tetracosa-1(22),5,7,9,19(23),20-hexaene-2,2,4-trione], in series [2], the EC50 was less than 1000 nM and the “Max. Activity” value was “+++ (+++ is >60%)”.

Take `Cc1c2cnn1CCCC1CN(c3nc(-n4ccc(OCC(C)(C)C(F)(F)F)n4)ccc3C(=O)NS2(=O)=O)C(C)(C)C1` (centres unmarked) [Compound 280, 20,20,22-trimethyl-4-[3-(3,3,3-trifluoro-2,2-dimethylpropoxy)-1H-pyrazol-1-yl]-10λ^6-thia-1,3,9,13,14-pentaazatetracyclo[16.2.1.111,14.02,7]docosa-2,4,6,11(22),12-pentaene-8,10,10-trione]: in series [2], the EC50 is less than 1000 nM and the “Max. Activity” value is given as “++ (++ is 30-60%)”.

As for `Cc1c2cnn1CCCC1CN(c3nc(-n4ccc(OCC(C)(C)C(F)(F)F)n4)ccc3C(=O)NS2(=O)=O)C(C)(C)C1` (centres unmarked) [Compound 282, 20,20,22-trimethyl-4-[3-(3,3,3-trifluoro-2,2-dimethylpropoxy)-1H-pyrazol-1-yl]-10λ^6-thia-1,3,9,13,14-pentaazatetracyclo[16.2.1.111,14.02,7]docosa-2,4,6,11(22),12-pentaene-8,10,10-trione], in series [2], the EC50 is greater than 3000 nM and the “Max. Activity” value was “+ (+ is <30%)”.

Consider `[2H]c1ccc2nc1NCCC[C@@H]1CN(c3nc(-n4ccc(OCC([2H])([2H])C5C6(CC6)C56CC6)n4)ccc3C(=O)NS2(=O)=O)C(C)(C)C1` [Compound 298, (14S)-8-[3-(2-{dispiro[2.0.2.1]heptan-7-yl}-2,2-dideuterio-ethoxy)-1H-pyrazol-1-yl]-12,12-dimethyl(20-deuterio)-2λ^6-thia-3,9,11,18,23-pentaazatetracyclo[17.3.1.111,14.05,10]tetracosa-1(23),5,7,9,19,21-hexaene-2,2,4-trione], for which, in series [2], the EC50 is less than 1000 nM and the “Max. Activity” value was “+++ (+++ is >60%)”.

Take `[2H]c1ccc2nc1NCCC[C@@H]1CN(c3nc(-n4ccc(OCCC5C6(CC6)C56CC6)n4)ccc3C(=O)NS2(=O)=O)C(C)(C)C1` [Compound 300, (14S)-8-[3-(2-{dispiro[2.0.2.1]heptan-7-yl}ethoxy)-1H-pyrazol-1-yl]-12,12-dimethyl(20-deuterio)-2λ^6-thia-3,9,11,18,23-pentaazatetracyclo[17.3.1.111,14.05,10]tetracosa-1(23),5,7,9,19,21-hexaene-2,2,4-trione]: in series [2], the EC50 was less than 1000 nM and the “Max. Activity” value is listed as “+++ (+++ is >60%)”.

As for `[2H]c1ccc2nc1NCCC[C@@H]1CN(c3nc(-n4ccc(OC([2H])([2H])C([2H])([2H])C5C6(CC6)C56CC6)n4)ccc3C(=O)NS2(=O)=O)C(C)(C)C1` [Compound 301, (14S)-8-[3-(2-{dispiro[2.0.2.1]heptan-7-yl}-1,1,2,2-tetradeuterio-ethoxy)-1H-pyrazol-1-yl]-12,12-dimethyl(20-deuterio)-2λ^6-thia-3,9,11,18,23-pentaazatetracyclo[17.3.1.111,14.05,10]tetracosa-1(23),5,7,9,19,21-hexaene-2,2,4-trione], in series [2], the EC50 was less than 1000 nM and the “Max. Activity” value is “+++ (+++ is >60%)”.

The EC50 is the concentration that produces a half-maximal response.
